The values that follow are results of earlier work, collected in US10471038B2, “Inhibitor of muscle damage or muscle fatigue” ([…] LABORATORY, CO., LTD., priority 2015, dated 2019).

The subject of the series is calpain. Conditions: mdx mice, intramuscular injection.

Regarding `CC(=O)N[C@@H](CC(C)C)C(=O)N[C@@H](CC(C)C)C(=O)N[C@H](C=O)CCCNC(=N)N` [leupeptin], the “activation of calpain in muscle tissue and muscle breakdown” value is listed as “inhibited”.
